Data taken from US20130324603A1, “PHARMACEUTICAL COMPOSITION FOR TREATING INFLAMMATION AND PAIN” (priority 2012, published 2013).

Test system: arachidonic acid-induced ear swelling
Assay: topical arachidonic acid-induced ear swelling model in mice
Type: in vivo
Details: for % Inhibition of ear swelling: measured at 90 minutes, male ICR mice; for inhibition in the ear swelling induced by arachidonic acid relative to vehicle-treated group (in words): statistically significant, p<0.05
Protocol: The active compounds (methanesulfonylalkylnitriles, n=1-6), indomethacin (positive control), and vehicle were evaluated for anti-inflammatory activity in a topical arachidonic acid-induced ear swelling model in mice.
Methanesulfonylacetonitrile (n=1) was purchased from Aldrich. Methanesulfonylalkylnitriles, n=2-5 were prepared by a method modified from Hsi et al. (Scientia Sinica 1974, 17, 743-751) with 30% hydrogen peroxide as the oxidizing agent. 7-methanesulfonylheptanenitrile (n=6) was prepared according to Example 1. Each active compound and the positive control were dissolved in vehicle (ethanol/acetone 1:1).
Male ICR mice weighing 22±2 g were used and randomly divided; each group had 10 mice. Arachidonic Acid (0.5 mg in 20 μl of acetone:ethanol/1:1) was applied topically to the anterior and posterior surfaces of the right ear of each mice. Test substances and vehicle, as listed in Table 3 were similarly topically applied 30 min before and 15 min after arachidonic acid application. The thickness of the right ear and the left ear was measured and the difference calculated as an indication of the inflammation in the right ear. Ear swelling was measured by a Dyer model micrometer gauge at 60 and 90 minutes after arachidonic acid application as an index of inflammation. Percent inhibition was calculated according to the formula: Ic−It/Ic×100, where Ic and It refers to increase of ear thickness (mm) in control and treated mice, respectively. ANOVA and Dunnett's test were employed to ascertain significant difference between vehicle control and treated groups. Significance is set at P<0.05 level.

[1] = 375 mM in acetone:ethanol (1:1), 20 μL, 30 min before and 15 min after arachidonic acid

Compound	% Inhibition of ear swelling [1] [%]	inhibition in the ear swelling induced by arachidonic acid relative to vehicle-treated group (in words)	% Inhibition of ear swelling (positive control, 14 mM (0.5% w/v), 0.1 mg/20 μL) [%]
CS(=O)(=O)CCC#N [3-methanesulfonylpropionitrile]	36	significant inhibition	–
CS(=O)(=O)CCCC#N [4-methanesulfonylbutyronitrile]	15	–	–
CS(=O)(=O)CCCCC#N [5-methanesulfonylpentanenitrile]	24	significant inhibition	–
CS(=O)(=O)CCCCCC#N [6-methanesulfonylhexanenitrile]	8	–	–
CS(=O)(=O)CCCCCCC#N [7-methanesulfonylheptanenitrile]	46	significant inhibition	–
COc1ccc2c(c1)c(CC(=O)O)c(C)n2C(=O)c1ccc(Cl)cc1 [Indomethacin, reference compound]	–	–	53
CS(=O)(=O)CC#N [Methanesulfonylacetonitrile, methanesulfonylacetonitrile]	22	significant inhibition	–
